Test results as given in patent US11891360B2, “Glycosylated psilocybin derivatives and methods of using” (Enveric Biosciences Canada Inc., priority 2020, dated 2024).

Legend:
[1] = target: 5-HT2A receptor (Homo sapiens, UniProt P28223); assay: Calcium mobilization (Fluo-8) assay in CHO-K1 cells stably expressing 5-HT2A (+5-HT2A); type: cell-based
Description: Briefly, vials with cells were removed from the liquid nitrogen and thawed quickly in 37° C. water bath.

[2] = test system: CHO-K1/Galpha15 cells (−5-HT2A); assay: Calcium mobilization (Fluo-8) assay in control cells lacking 5-HT2A (−5-HT2A); type: cell-based, Chinese Hamster; settings: CHO-K1/Galpha15 control cells lacking 5-HT2A
Text: Cell lines for pharmacology assays. CHO-K1/Galpha15 (GenScript, M00257) (−5-HT2A) and CHO-K1/5-HT2A (GenScript, M00250) (+5-HT2A) cells lines were used in both toxicology/growth inhibition (MTT) and calcium release assays. Briefly, CHO-K1/Galpha15 is a control cell line that constitutively expresses Galpha15 which is a promiscuous Gq protein. It is engineered as a host cell, allowing transfected receptor(s) to signal through the Gq signal transduction pathway and mobilize intracellular calcium from the endoplasmic reticulum (ER). These control cells lack any transgene encoding 5-HT2A receptors, thus preventing calcium mobilization in response to 5-HT2A activation. Conversely, CHO-K1/5-HT2A cells stably express 5-HT2A receptor in the CHO-K1 host background. This design enables Gq-11 expressed in CHO-K1 cells to mobilize intracellular calcium changes when 5-HT2A receptors are activated by ligands.
Cell lines were maintained in Ham's F12 media plus 10% FBS in the presence of 100 ug/ml hygromycin for CHO-K1/Ga15 or 400 ug/ml G418 for CHO-K1/5-HT2A unless indicated otherwise for specific assays. Cell maintenance was carried out as recommended by the cell supplier. Briefly, vials with cells were removed from the liquid nitrogen and thawed quickly in 37° C. water bath. […]
Increase in cytosolic calcium concentration by 5-HT2A activation. Changes in intracellular calcium concentration due to the treatment with assay compounds was measured using Fluo-8 dye (Abcam, #ab112129) according to the manufacturer's instructions. […] Fluorescence (ex 490 nm/em 525 nm) obtained after the addition of molecules was expressed relative to values obtained before addition of the molecules (relative Fluo-8 fluorescence=Fmax/F0, where Fmax=maximum fluorescence and F0=baseline fluorescence). Fluorescence intensities were measured using a Spectramax ID3 plate reader (www.moleculardevices.com). Relative fluorescence (RFU) was plotted with respected to time (seconds) illustrating time-dependent calcium flux. […] The Example compound (Ill) was then evaluated.

Sequence of 5-HT2A receptor (P28223 whole entry): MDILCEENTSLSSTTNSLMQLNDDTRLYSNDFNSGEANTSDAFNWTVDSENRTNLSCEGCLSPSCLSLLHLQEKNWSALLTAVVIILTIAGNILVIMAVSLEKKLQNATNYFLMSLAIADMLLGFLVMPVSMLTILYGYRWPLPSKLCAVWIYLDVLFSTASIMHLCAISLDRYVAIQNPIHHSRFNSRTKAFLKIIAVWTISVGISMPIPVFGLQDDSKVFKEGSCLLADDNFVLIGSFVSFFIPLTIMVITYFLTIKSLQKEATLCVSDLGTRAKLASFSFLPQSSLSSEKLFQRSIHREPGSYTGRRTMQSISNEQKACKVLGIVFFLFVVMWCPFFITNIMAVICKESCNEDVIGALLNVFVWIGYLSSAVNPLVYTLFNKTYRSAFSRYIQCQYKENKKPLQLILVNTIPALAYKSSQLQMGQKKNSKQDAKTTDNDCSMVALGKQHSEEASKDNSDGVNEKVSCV

NCCc1c[nH]c2cccc(O[C@@H]3OC(CO)[C@H](O)C(O)C3O)c12 (stereo partly drawn) [V, 4-O-β-D-galactopyranosyltryptamine]
dose dependence of calcium flux response ([1]; +5-HT2A cells, 0.001-100 μM): response increased with dosage | time to peak of intracellular calcium flux ([1]; +5-HT2A cells, 0.001-100 μM, relative Fluo-8 fluorescence vs time): under 60 seconds | calcium flux response in −5-HT2A cells [2]: did not exhibit a response

CN(C)CCc1c[nH]c2cccc(O)c12 [psilocin, reference compound]
dose dependence of calcium flux response ([1]; +5-HT2A cells, 0.001-100 μM): response increased with dosage | calcium flux response in −5-HT2A cells [2]: did not exhibit a response

NCCc1c[nH]c2cccc(O[C@@H]3OC(CO)[C@@H](O)C(O)C3O)c12 (stereo partly drawn) [III, 4-O-β-D-glucopyranosyltryptamine]
dose dependence of calcium flux response ([1]; +5-HT2A cells, 0.001-100 μM): response increased with dosage | calcium flux response in −5-HT2A cells [2]: did not exhibit a response

CN(C)CCc1c[nH]c2cccc(O[C@@H]3OC(CO)[C@H](O)C(O)C3O)c12 (stereo partly drawn) [VI, N,N-dimethyl-4-O-β-D-galactopyranosyltryptamine]
EC50 ([1]; CHO-K1/5-HT2A (+5-HT2A) cells, four parameter logistic curve fitting, GraphPad Prism, read-out: EC50 of relative Fluo-8 fluorescence (calcium mobilization)): 3.81 µM
